Where “and” joins values, the source holds several entries; their conditions need not be identical. Identical values can stand only once.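 Five compound concentrations were applied to cells in 96-well plates for 48 hours; endpoints were derived by simple linear interpolation of the resulting dose-response curve. Abbreviation: GI50, concentration required for 50% inhibition of growth. TGI: total growth inhibition.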 *1 amine or outer side, *2 acyl side, *3 side chain or, on linkers, in order; H or OH if unused. Where a SMILES comes first, the peptide text is derived from it. Bridges are numbered along the chain shown (N, C = ends). [ ]: non-standard residue; d: D form. The star is where a group is joined. ξ: configuration not given here. Phe(3,5-F2) = N[C@@H](Cc1cc(F)cc(F)c1)C(=O)O; ξThr(3S) = C[C@H](O[*:3])C(N[*:1])C(=O)[*:2]; Pro(4R-Me) = C[C@H]1CN[C@H](C(=O)O)C1; Pip = O=C(O)[C@@H]1CCCCN1; X1 = Cc1ccc(N*)c(F)c1; CO = O=C([*:1])[*:2]
Experiments:
Test in all cases: inhibition of tumour cell growth, NCI panel, 48 h
786-0 renal = test system: 786-0 renal
A498 renal = test system: A498 renal
A549 NSCLC = test system: A549 NSCLC
ACHN renal = test system: ACHN renal
BT-549 breast = test system: BT-549 breast
CAKI-1 renal = test system: CAKI-1 renal
CCRF-CEM leukemia = test system: CCRF-CEM leukemia
COLO 205 colon = test system: COLO 205 colon
DU-145 prostate = test system: DU-145 prostate
EKVX NSCLC = test system: EKVX NSCLC
HCC-2998 colon = test system: HCC-2998 colon
HCT-116 colon = test system: HCT-116 colon
HCT-15 colon = test system: HCT-15 colon
HL-60(TB) leukemia = test system: HL-60(TB) leukemia
HOP-62 NSCLC = test system: HOP-62 NSCLC
HOP-92 NSCLC = test system: HOP-92 NSCLC
HS 578T breast = test system: HS 578T breast
HT29 colon = test system: HT29 colon
IGROV1 ovarian = test system: IGROV1 ovarian
K-562 leukemia = test system: K-562 leukemia
KM12 colon = test system: KM12 colon
LOX IMVI melanoma = test system: LOX IMVI melanoma
M14 melanoma = test system: M14 melanoma
MALME-3M melanoma = test system: MALME-3M melanoma
MCF7 breast = test system: MCF7 breast
MDA-MB-231 breast = test system: MDA-MB-231 breast
MDA-MB-435 = test system: MDA-MB-435
MOLT-4 leukemia = test system: MOLT-4 leukemia
NCI-H226 lung = test system: NCI-H226 lung
NCI-H23 lung = test system: NCI-H23 lung
NCI-H460 lung = test system: NCI-H460 lung
NCI-H522 lung = test system: NCI-H522 lung
NCI/ADR-RES ovarian = test system: NCI/ADR-RES ovarian
OVCAR-3 ovarian = test system: OVCAR-3 ovarian
OVCAR-4 ovarian = test system: OVCAR-4 ovarian
OVCAR-5 ovarian = test system: OVCAR-5 ovarian
OVCAR-8 ovarian = test system: OVCAR-8 ovarian
PC-3 prostate = test system: PC-3 prostate
RPMI-8226 leukemia = test system: RPMI-8226 leukemia
RXF 393 renal = test system: RXF 393 renal
SF-268 CNS = test system: SF-268 CNS
SF-295 CNS = test system: SF-295 CNS
SF-539 CNS = test system: SF-539 CNS
SK-MEL-2 melanoma = test system: SK-MEL-2 melanoma
SK-MEL-28 melanoma = test system: SK-MEL-28 melanoma
SK-MEL-5 melanoma = test system: SK-MEL-5 melanoma
SK-OV-3 ovarian = test system: SK-OV-3 ovarian
SN12C renal = test system: SN12C renal
SNB-19 CNS = test system: SNB-19 CNS
SNB-75 CNS = test system: SNB-75 CNS
SR leukemia = test system: SR leukemia
SW-620 colon = test system: SW-620 colon
T-47D breast = test system: T-47D breast
TK-10 renal = test system: TK-10 renal
U251 CNS = test system: U251 CNS
UACC-257 melanoma = test system: UACC-257 melanoma
UACC-62 melanoma = test system: UACC-62 melanoma
UO-31 renal = test system: UO-31 renal

**Q.** What does the source list for `Cc1ccc(NC(=O)N[C@@H](Cc2cc(F)cc(F)c2)C(=O)NC2C(=O)N3CCC[C@H]3C(=O)N3CCCC[C@H]3C(=O)N[C@@H](C)C(=O)N3C[C@H](C)C[C@H]3C(=O)O[C@H]2C)c(F)c1` (stereo partly drawn) ({X1-CO}-[Phe(3,5-F2)][ξThr(3S)]P[Pip]A[Pro(4R-Me)]; ester 2-C)?
**A.** GI50 (786-0 renal): 422 nM and 633 nM; TGI (786-0 renal): 50000 nM and > 100000 nM; GI50 (A498 renal): 5140 nM and 950 nM; TGI (A498 renal): 41200 nM and 10200 nM; GI50 (A549 NSCLC): 223 nM and 640 nM; TGI (A549 NSCLC): 50000 nM and > 100000 nM; GI50 (ACHN renal): 321 nM and 528 nM; TGI (ACHN renal): 50000 nM and > 100000 nM; GI50 (BT-549 breast): 283 nM and 260 nM; TGI (BT-549 breast): 12000 nM and 11800 nM; GI50 (CAKI-1 renal): 210 nM and 288 nM; TGI (CAKI-1 renal): 50000 nM and > 100000 nM; GI50 (CCRF-CEM leukemia): 236 nM and 127 nM; TGI (CCRF-CEM leukemia): 50000 nM and 30100 nM; GI50 (COLO 205 colon): 124 nM and 156 nM; TGI (COLO 205 colon): 338 nM and 496 nM; GI50 (DU-145 prostate): 349 nM and 147 nM; TGI (DU-145 prostate): 50000 nM and > 100000 nM; GI50 (EKVX NSCLC): 252 nM and 377 nM; TGI (EKVX NSCLC): 50000 nM and > 100000 nM; GI50 (HCC-2998 colon): 255 nM and 390 nM; TGI (HCC-2998 colon): 9170 nM and 10800 nM; GI50 (HCT-116 colon): 266 nM and 65.3 nM; TGI (HCT-116 colon): 7470 nM and 11100 nM; GI50 (HCT-15 colon): 231 nM and 357 nM; TGI (HCT-15 colon): 10000 nM and 14900 nM; GI50 (HL-60(TB) leukemia): 213 nM and 47.4 nM; TGI (HL-60(TB) leukemia): 8610 nM and 2050 nM; GI50 (HOP-62 NSCLC): 235 nM and 322 nM; TGI (HOP-62 NSCLC): 50000 nM and 46300 nM; GI50 (HOP-92 NSCLC): 163 nM and 251 nM; TGI (HOP-92 NSCLC): 9010 nM and 3050 nM; GI50 (HS 578T breast): 394 nM; TGI (HS 578T breast): 50000 nM and 8560 nM; GI50 (HT29 colon): 276 nM and 302 nM; TGI (HT29 colon): 10200 nM and 10100 nM; GI50 (IGROV1 ovarian): 2470 nM and 828 nM; TGI (IGROV1 ovarian): 40400 nM and > 100000 nM; GI50 (K-562 leukemia): 134 nM and 43.7 nM; TGI (K-562 leukemia): 50000 nM and > 100000 nM; GI50 (KM12 colon): 533 nM and 384 nM; TGI (KM12 colon): 23500 nM and 24300 nM; GI50 (LOX IMVI melanoma): 131 nM and 425 nM; TGI (LOX IMVI melanoma): 6950 nM and 24400 nM; GI50 (M14 melanoma): 297 nM and 245 nM; TGI (M14 melanoma): 9860 nM and 16400 nM; GI50 (MALME-3M melanoma): 410 nM and 561 nM; TGI (MALME-3M melanoma): 17100 nM and 19100 nM; GI50 (MCF7 breast): 206 nM and 195 nM; TGI (MCF7 breast): 50000 nM and 53500 nM; GI50 (MDA-MB-231 breast): 166 nM and 279 nM; TGI (MDA-MB-231 breast): 1840 nM and 12800 nM; GI50 (MDA-MB-435): 230 nM and 117 nM; TGI (MDA-MB-435): 12300 nM and 14600 nM; GI50 (MOLT-4 leukemia): 545 nM and 669 nM; TGI (MOLT-4 leukemia): 25800 nM and 22900 nM; GI50 (NCI-H226 lung): 272 nM and 368 nM; TGI (NCI-H226 lung): 40500 nM and 7750 nM; GI50 (NCI-H23 lung): 228 nM; TGI (NCI-H23 lung): 39400 nM; GI50 (NCI-H460 lung): 220 nM and 222 nM; TGI (NCI-H460 lung): 50000 nM and 21000 nM; GI50 (NCI-H522 lung): 211 nM and 119 nM; TGI (NCI-H522 lung): 8500 nM and 10700 nM; GI50 (NCI/ADR-RES ovarian): 1730 nM and 1700 nM; TGI (NCI/ADR-RES ovarian): 50000 nM and > 100000 nM; GI50 (OVCAR-3 ovarian): 360 nM and 312 nM; TGI (OVCAR-3 ovarian): 44900 nM and 13200 nM; GI50 (OVCAR-4 ovarian): 268 nM and 98.9 nM; TGI (OVCAR-4 ovarian): 50000 nM and > 100000 nM; GI50 (OVCAR-5 ovarian): 275 nM and 506 nM; TGI (OVCAR-5 ovarian): 9740 nM and 16000 nM; GI50 (OVCAR-8 ovarian): 194 nM and 64.6 nM; TGI (OVCAR-8 ovarian): 50000 nM and > 100000 nM; GI50 (PC-3 prostate): 181 nM and 111 nM; TGI (PC-3 prostate): 50000 nM and > 100000 nM; GI50 (RPMI-8226 leukemia): 119 nM and 38 nM; TGI (RPMI-8226 leukemia): 6250 nM and 1300 nM; GI50 (RXF 393 renal): 2870 nM and 778 nM; TGI (RXF 393 renal): 17500 nM and 9160 nM; GI50 (SF-268 CNS): 393 nM and 446 nM; TGI (SF-268 CNS): 50000 nM and 48600 nM; GI50 (SF-295 CNS): 200 nM and 240 nM; TGI (SF-295 CNS): 11500 nM and 3580 nM; GI50 (SF-539 CNS): 696 nM and 709 nM; TGI (SF-539 CNS): 11100 nM and 16900 nM; GI50 (SK-MEL-2 melanoma): 198 nM and 164 nM; TGI (SK-MEL-2 melanoma): 7580 nM and 921 nM; GI50 (SK-MEL-28 melanoma): 467 nM and 709 nM; TGI (SK-MEL-28 melanoma): 13800 nM and 18400 nM; GI50 (SK-MEL-5 melanoma): 199 nM and 397 nM; TGI (SK-MEL-5 melanoma): 7290 nM and 7900 nM; GI50 (SK-OV-3 ovarian): 225 nM and 360 nM; TGI (SK-OV-3 ovarian): 17400 nM and 7040 nM; GI50 (SN12C renal): 171 nM and 303 nM; TGI (SN12C renal): 50000 nM and > 100000 nM; GI50 (SNB-19 CNS): 208 nM and 187 nM; TGI (SNB-19 CNS): 50000 nM and > 100000 nM; GI50 (SNB-75 CNS): 289 nM; TGI (SNB-75 CNS): 50000 nM; GI50 (SR leukemia): 334 nM and 626 nM; TGI (SR leukemia): 12100 nM and 21600 nM; GI50 (SW-620 colon): 433 nM and 483 nM; TGI (SW-620 colon): 50000 nM and > 100000 nM; GI50 (T-47D breast): 222 nM and 314 nM; TGI (T-47D breast): 50000 nM and 18000 nM; GI50 (TK-10 renal): 385 nM and 791 nM; TGI (TK-10 renal): 50000 nM and 42700 nM; GI50 (U251 CNS): 210 nM and 336 nM; TGI (U251 CNS): 50000 nM and > 100000 nM; GI50 (UACC-257 melanoma): 191 nM and 316 nM; TGI (UACC-257 melanoma): 7580 nM and 7520 nM; GI50 (UACC-62 melanoma): 247 nM and 451 nM; TGI (UACC-62 melanoma): 10700 nM and 19300 nM; GI50 (UO-31 renal): 585 nM and 456 nM; TGI (UO-31 renal): 50000 nM and > 100000 nM
